In patent publication US7323260B2, “Lubricant, recording medium and carboxylic acid compound” (Sony Corporation, priority 2003, dated 2008):

Experiment: Evaluation of solubility in solvent
Format: physicochemical
Method: Solubility of lubricants which were used in Examples 1 to 11 and Comparative Example 3 in each of ethanol, acetone and toluene was evaluated. Evaluation results of solubility of the lubricants are shown in Table 10 by evaluation criteria as defined as follows: […]
Solubility of lubricants which were used in Examples 21 to 37 in each of ethanol, acetone and toluene was evaluated. Evaluation results of solubility of lubricants are shown in Table 19 by evaluation criteria as defined as follows: […]

With “C18H37CH(COOC12H25)(CH2)2COOCH2CF2(OCF2)p(OCF(CF3)CF2)qOCF3 [Comparative Example 3]” as the substance, how does the “solubility in a hydrocarbon type solvent (in words)” value read?
The value was “hardly dissolved”.
